Results as given in PubChem BioAssay AID330 (DTP/NCI, 2004).
Values joined by “and” are separate entries in the source; they are usually repeats but may differ in a detail not shown here. Identical values can stand only once. Inconclusive results and toxic doses are left out. The calls were made as follows: active = survival T/C of 150% or more; inactive = T/C below 125% in these data.

System: P388 leukemia ip, CD2F1 mice, survival T/C
Experiment: NCI In Vivo Anticancer Drug Screen. Data for tumor model P388 Leukemia (intraperitoneal) in CD2F1 (CDF1) mice
Conditions: endpoint: median survival time, higher = longer survival
Summary of the method: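 Mice carrying the transplanted tumor received test compound or vehicle. Survival was recorded in each group, and the value is the treated-group measurement divided by that of the vehicle-treated control group.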

[1] = dose: 12.5 mg/kg/injection, schedule: Q01DX009 (ip), vehicle: saline
[2] = dose: 25.0 mg/kg/injection, schedule: Q01DX009 (ip), vehicle: saline
[3] = dose: 50.0 mg/kg/injection, schedule: Q01DX009 (ip), vehicle: saline
[4] = dose: 50.0 mg/kg/injection, schedule: Q01DX005 (ip), vehicle: saline with Tween-80
[5] = dose: 200.0 mg/kg/injection, schedule: Q01DX005 (ip), vehicle: saline with Tween-80
[6] = dose: 50.0 mg/kg/injection, schedule: Q01DX009 (ip), vehicle: Klucel (hydroxypropylcellulose) (HPC)
[7] = dose: 100.0 mg/kg/injection, schedule: Q01DX009 (ip), vehicle: Klucel (hydroxypropylcellulose) (HPC)
[8] = dose: 1.56 mg/kg/injection, schedule: Q04DX003 (ip), vehicle: saline
[9] = dose: 6.25 mg/kg/injection, schedule: Q04DX003 (ip), vehicle: saline
[10] = dose: 50.0 mg/kg/injection, schedule: Q01DX005 (ip), vehicle: Klucel (hydroxypropylcellulose) (HPC)
[11] = dose: 100.0 mg/kg/injection, schedule: Q01DX005 (ip), vehicle: Klucel (hydroxypropylcellulose) (HPC)
[12] = dose: 200.0 mg/kg/injection, schedule: Q01DX005 (ip), vehicle: Klucel (hydroxypropylcellulose) (HPC)
[13] = dose: 12.5 mg/kg/injection, schedule: Q01DX009 (ip), vehicle: saline with Tween-80
[14] = dose: 50.0 mg/kg/injection, schedule: Q01DX009 (ip), vehicle: saline with Tween-80
[15] = dose: 200.0 mg/kg/injection, schedule: Q01DX009 (ip), vehicle: saline with Tween-80
[16] = dose: 100.0 mg/kg/injection, schedule: Q01DX009 (ip), vehicle: saline with Tween-80

Measured: T/C

C=C1CCC2C(OC(=O)C2(O)CO)C2C(=C)C(O)CC12 (stereo not drawn)
inactive: dose: 9.38 mg/kg/injection, schedule: Q01DX005 (ip), vehicle: Klucel (hydroxypropylcellulose) (HPC) 103 % of control | dose: 18.75 mg/kg/injection, schedule: Q01DX005 (ip), vehicle: Klucel (hydroxypropylcellulose) (HPC) 105 % of control | dose: 37.5 mg/kg/injection, schedule: Q01DX005 (ip), vehicle: Klucel (hydroxypropylcellulose) (HPC) 100 % of control | dose: 75.0 mg/kg/injection, schedule: Q01DX005 (ip), vehicle: Klucel (hydroxypropylcellulose) (HPC) 104 % of control | dose: 150.0 mg/kg/injection, schedule: Q01DX005 (ip), vehicle: Klucel (hydroxypropylcellulose) (HPC) 113 % of control

CCSC1C(=O)N(C)C(SCC)C(=O)N1C (stereo not drawn)
inactive: [1] 103 % of control | [2] 109 % of control | [3] 100 % of control and 86 % of control

FC(F)(F)C1=C(C(F)(F)F)SP(Cl)(Cl)(c2ccccc2)S1
inactive: dose: 12.5 mg/kg/injection, schedule: Q04DX003 (ip), vehicle: saline with Tween-80 105 % of control | dose: 25.0 mg/kg/injection, schedule: Q04DX003 (ip), vehicle: saline with Tween-80 105 % of control | dose: 50.0 mg/kg/injection, schedule: Q04DX003 (ip), vehicle: saline with Tween-80 105 % of control | dose: 75.0 mg/kg/injection, schedule: Q04DX003 (ip), vehicle: saline with Tween-80 101 % of control

COc1cc(OC)c(NC(=S)Nc2cc(C)ccc2OC)cc1Cl
inactive: dose: 6.25 mg/kg/injection, schedule: Q01DX009 (ip), vehicle: DMSO 94 % of control | dose: 12.5 mg/kg/injection, schedule: Q01DX009 (ip), vehicle: DMSO 91 % of control | dose: 25.0 mg/kg/injection, schedule: Q01DX009 (ip), vehicle: DMSO 91 % of control | dose: 50.0 mg/kg/injection, schedule: Q01DX009 (ip), vehicle: DMSO 91 % of control and 93 % of control | dose: 100.0 mg/kg/injection, schedule: Q01DX009 (ip), vehicle: DMSO 87 % of control

Oc1cc2c(cc1C(c1ccc(F)cc1)n1ccnc1)OCO2 (stereo not drawn)
inactive: dose: 60.0 mg/kg/injection, schedule: Q01DX005 (ip), vehicle: Klucel (hydroxypropylcellulose) (HPC) 96 % of control | dose: 120.0 mg/kg/injection, schedule: Q01DX005 (ip), vehicle: Klucel (hydroxypropylcellulose) (HPC) 94 % of control | dose: 240.0 mg/kg/injection, schedule: Q01DX005 (ip), vehicle: Klucel (hydroxypropylcellulose) (HPC) 91 % of control

O=C(NCCCCCCCCCNC(=O)C12CC3CC(CC(C3)C1)C2)C12CC3CC(CC(C3)C1)C2
inactive: dose: 12.5 mg/kg/injection, schedule: Q01DX005 (ip), vehicle: saline with Tween-80 93 % of control | dose: 25.0 mg/kg/injection, schedule: Q01DX005 (ip), vehicle: saline with Tween-80 93 % of control | [4] 88 % of control | [5] 90 % of control

CCOC(=O)NN(C(=O)OCC)c1c(NC)n(C)c(=O)n(C)c1=O
inactive: [6] 100 % of control | [7] 106 % of control | dose: 200.0 mg/kg/injection, schedule: Q01DX009 (ip), vehicle: Klucel (hydroxypropylcellulose) (HPC) 89 % of control

CN(C)CCS(=O)(=O)O
inactive: [8] 100 % of control | dose: 3.12 mg/kg/injection, schedule: Q04DX003 (ip), vehicle: saline 100 % of control | [9] 88 % of control | dose: 12.5 mg/kg/injection, schedule: Q04DX003 (ip), vehicle: saline 94 % of control | dose: 50.0 mg/kg/injection, schedule: Q04DX003 (ip), vehicle: saline 97 % of control | dose: 100.0 mg/kg/injection, schedule: Q04DX003 (ip), vehicle: saline 102 % of control

CC1C(=O)C(C)C(c2ccccc2)N(C)C1c1ccccc1 (stereo not drawn)
inactive: [4] 96 % of control | dose: 60.0 mg/kg/injection, schedule: Q01DX005 (ip), vehicle: saline with Tween-80 101 % of control | dose: 100.0 mg/kg/injection, schedule: Q01DX005 (ip), vehicle: saline with Tween-80 106 % of control | dose: 120.0 mg/kg/injection, schedule: Q01DX005 (ip), vehicle: saline with Tween-80 96 % of control | [5] 98 % of control | dose: 240.0 mg/kg/injection, schedule: Q01DX005 (ip), vehicle: saline with Tween-80 106 % of control

Clc1cccc(Cl)c1C(Nc1ncccn1)Nc1ncccn1
inactive: [10] 106 % of control | [11] 100 % of control | [12] 97 % of control

O=C(O)CC(=O)C(C(=O)O)C(CCc1ccccc1)C(C(=O)O)C(=O)CC(=O)O (stereo not drawn)
inactive: dose: 3.12 mg/kg/injection, schedule: Q01DX009 (ip), vehicle: saline with Tween-80 92 % of control | dose: 6.25 mg/kg/injection, schedule: Q01DX009 (ip), vehicle: saline with Tween-80 101 % of control | [13] 100 % of control | [14] 89 % of control and 92 % of control | [15] 90 % of control

O=Cc1ccc([N+](=O)[O-])[nH]1
inactive: [13] 92 % of control | dose: 25.0 mg/kg/injection, schedule: Q01DX009 (ip), vehicle: saline with Tween-80 87 % of control | [14] 92 % of control | [16] 86 % of control

CCC(c1ccc(OC)cc1)C(NCC(=O)NNC(=O)CNC(c1ccc(OC)cc1)C(CC)c1ccc(OC)cc1)c1ccc(OC)cc1 (stereo not drawn)
inactive: dose: 200.0 mg/kg/injection, schedule: Q04DX002 (ip), vehicle: saline with Tween-80 86 % of control | dose: 400.0 mg/kg/injection, schedule: Q04DX002 (ip), vehicle: saline with Tween-80 92 % of control

CC(C)=CC[P+](C)(c1ccccc1)c1ccccc1
inactive: [8] 101 % of control | dose: 3.13 mg/kg/injection, schedule: Q04DX003 (ip), vehicle: saline 100 % of control | [9] 89 % of control

Nc1nc2c(ncn2C2OC(CO)C(O)C2O)c(=O)n1N (stereo not drawn)
inactive: dose: 12.5 mg/kg/injection, schedule: Q01DX009 (ip), vehicle: Klucel (hydroxypropylcellulose) (HPC) 100 % of control and 102 % of control | dose: 25.0 mg/kg/injection, schedule: Q01DX009 (ip), vehicle: Klucel (hydroxypropylcellulose) (HPC) 103 % of control | [6] 101 % of control and 108 % of control | [7] 104 % of control and 113 % of control

Cc1ccnc(NC2=CC(=O)C(=O)c3ccccc32)c1
inactive: dose: 37.5 mg/kg/injection, schedule: Q01DX009 (ip), vehicle: saline sonified 122 % of control

CCN1/C(=C/C=C/C=C/c2oc3ccccc3[n+]2CC)Oc2ccccc21
inactive: dose: 0.78 mg/kg/injection, schedule: Q01DX009 (ip), vehicle: saline 104 % of control | dose: 1.56 mg/kg/injection, schedule: Q01DX009 (ip), vehicle: saline 104 % of control | dose: 3.12 mg/kg/injection, schedule: Q01DX009 (ip), vehicle: saline 110 % of control

CCOC(=O)C(=CC(CC)(C(=O)OCC)C(=O)OCC)C(=O)OCC
inactive: dose: 100.0 mg/kg/injection, schedule: Q04DX003 (ip), vehicle: saline with Tween-80 110 % of control | dose: 200.0 mg/kg/injection, schedule: Q04DX003 (ip), vehicle: saline with Tween-80 110 % of control | dose: 300.0 mg/kg/injection, schedule: Q04DX003 (ip), vehicle: saline 109 % of control | dose: 450.0 mg/kg/injection, schedule: Q04DX003 (ip), vehicle: saline 100 % of control | dose: 600.0 mg/kg/injection, schedule: Q04DX003 (ip), vehicle: saline 109 % of control

COC(=O)C12CC3CC(CC(NC(=O)C(Cc4ccccc4)NC(=O)CN)(C3)C1)C2 (stereo not drawn)
inactive: dose: 60.0 mg/kg/injection, schedule: Q01DX005 (ip), vehicle: saline 94 % of control | dose: 120.0 mg/kg/injection, schedule: Q01DX005 (ip), vehicle: saline 99 % of control | dose: 240.0 mg/kg/injection, schedule: Q01DX005 (ip), vehicle: saline 94 % of control

CC(=O)Nc1ccc(S(=O)(=O)n2c(=O)oc3ccc(Cl)cc32)cc1
inactive: [10] 99 % of control | [11] 94 % of control | [12] 94 % of control

COc1ccc2c(c1OC)C(=O)O[C@@H]2[C@H]1c2c(cc3c(c2OC)OCO3)CCN1C
inactive: dose: 62.5 mg/kg/injection, schedule: Q01DX010 (ip), vehicle: saline 100 % of control | dose: 125.0 mg/kg/injection, schedule: Q01DX010 (ip), vehicle: saline 95 % of control

O=[n+]1c2c(n([O-])c3ccccc31)CCC2
inactive: [14] 98 % of control | [16] 100 % of control | [15] 108 % of control

CCc1c(C#N)c(S)[nH]c(=S)c1C#N
inactive: [1] 90 % of control | [2] 100 % of control | [3] 98 % of control and 102 % of control
